Measured values published in patent US20080009418A1, “Selective Inhibitors” (Alchemia LTD., priority 2004, published 2008).

Assays:
Conditions in all cases: compound at 10 μM
[1] = biological target: T1, Human δ-opioid (DOP) (Homo sapiens, UniProt P41143); experiment: Radioligand binding, human δ-opioid (DOP) membranes, FlashPlate, [3H]-Bremazocine
T1 construct: purchased Perkin Elmer Biosignal
Method in brief: (§1)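 Cloned human receptor membranes were coated onto FlashPlate wells and incubated with radioligand and compound (added from a 0.5 mM DMSO daughter plate) for 1 hour at room temperature in the dark. Scintillation counting gave percent inhibition, with DMSO defining total and reference ligand defining non-specific binding.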

[2] = biological target: T2, Human κ-Opioid (KOP) (Homo sapiens, UniProt P41145); experiment: Radioligand binding, human κ-opioid (KOP) membranes, filtration, [3H]-Diprenorphine
T2 construct: purchased Perkin Elmer Biosignal
Method in brief: (§2)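 Membranes from cloned human receptors were incubated with compound and radioligand for 1 hour at room temperature. Bound ligand was collected on 0.3% PEI-soaked filters, washed with cold 50 mM Tris-HCl pH 7.4, and counted by scintillation. Percent inhibition was computed against DMSO totals and reference-ligand nonspecific wells.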

[3] = biological target: T3, Human Melanocortin (MC3) (Homo sapiens, UniProt P41968); experiment: Radioligand binding, human melanocortin MC3 membranes, FlashPlate, [125I]-NDP-αMSH
T3 construct: purchased Perkin Elmer Biosignal
Method in brief: as §1

[4] = biological target: T4, Human Melanocortin (MC4) (Homo sapiens, UniProt P32245); experiment: Radioligand binding, human melanocortin MC4 membranes, FlashPlate, [125I]-NDP-αMSH
T4 construct: purchased Perkin Elmer Biosignal
Method in brief: as §1

[5] = biological target: T5, Human melanocortin (MC5) (Homo sapiens, UniProt P33032); experiment: Radioligand binding, human melanocortin MC5 membranes, FlashPlate, [125I]-NDP-αMSH
T5 construct: purchased Perkin Elmer Biosignal
Method in brief: as §1

[6] = biological target: T6, Human melanin-concentrating hormone (MCH1) (Homo sapiens, UniProt Q99705); experiment: Radioligand binding, human melanin-concentrating hormone MCH1 membranes, FlashPlate, [125I]-S36057
T6 construct: purchased Perkin Elmer Biosignal
Method in brief: as §1

[7] = biological target: T7, Human μ-opioid (MOP) (Homo sapiens, UniProt P35372); experiment: Radioligand binding, human μ-opioid (MOP) membranes, FlashPlate, [3H]-Naloxone
T7 construct: purchased Perkin Elmer Biosignal
Method in brief: as §1

[8] = biological target: T8, Human neurokinin (NK1) (Homo sapiens, UniProt P25103); experiment: Radioligand binding, human neurokinin NK1 membranes, filtration, [125I]-Substance P
T8 construct: purchased Perkin Elmer Biosignal
Method in brief: as §2

[9] = biological target: T9, Human neuropeptide Y (NPY-Y1) (Homo sapiens, UniProt P25929); experiment: Radioligand binding, human neuropeptide Y NPY-Y1 membranes, FlashPlate, [125I]-PYY
T9 construct: purchased Perkin Elmer Biosignal
T9 sequence (P25929 1-384): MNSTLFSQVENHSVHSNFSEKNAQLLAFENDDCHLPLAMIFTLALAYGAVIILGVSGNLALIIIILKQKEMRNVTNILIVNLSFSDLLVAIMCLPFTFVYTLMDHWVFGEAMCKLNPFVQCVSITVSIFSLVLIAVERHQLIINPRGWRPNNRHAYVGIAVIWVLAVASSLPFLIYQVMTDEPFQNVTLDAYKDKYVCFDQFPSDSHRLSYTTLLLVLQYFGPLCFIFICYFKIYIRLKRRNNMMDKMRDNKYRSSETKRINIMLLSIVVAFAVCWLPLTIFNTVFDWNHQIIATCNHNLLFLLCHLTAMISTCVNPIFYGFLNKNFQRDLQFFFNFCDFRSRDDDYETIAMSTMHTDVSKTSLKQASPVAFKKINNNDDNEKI
Method in brief: as §1

[10] = biological target: T10, Human opioid (ORL1) (Homo sapiens, UniProt P41146); experiment: Radioligand binding, human opioid ORL1 membranes, FlashPlate, [125I]-Nociceptin
T10 construct: purchased Perkin Elmer Biosignal
Method in brief: as §1

[11] = biological target: T11, Mouse urotensin (mUR2) (Mus musculus, UniProt Q8VIH9); experiment: Radioligand binding, mouse urotensin mUR2 membranes, FlashPlate, [125I]-Urotensin II
T11 construct: purchased Perkin Elmer Biosignal
T11 sequence (Q8VIH9 1-385): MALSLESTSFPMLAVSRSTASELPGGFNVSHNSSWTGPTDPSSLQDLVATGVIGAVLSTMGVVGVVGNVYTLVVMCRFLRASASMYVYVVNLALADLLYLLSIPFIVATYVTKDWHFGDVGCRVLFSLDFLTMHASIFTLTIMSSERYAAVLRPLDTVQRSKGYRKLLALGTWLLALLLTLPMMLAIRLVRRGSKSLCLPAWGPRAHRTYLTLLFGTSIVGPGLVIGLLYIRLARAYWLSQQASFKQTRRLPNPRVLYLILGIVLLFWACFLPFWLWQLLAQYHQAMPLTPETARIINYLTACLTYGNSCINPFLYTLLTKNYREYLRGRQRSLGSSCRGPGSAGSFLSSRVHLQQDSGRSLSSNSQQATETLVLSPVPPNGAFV
Method in brief: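 Cloned mouse urotensin (mUR2) receptor membranes from Perkin Elmer Biosignal were immobilized in FlashPlate microplates using a proprietary coating. Each well got 19.5 μl buffer, then 0.5 μl of DMSO, reference ligand, or compound. Adding 5 μl of [125I]-Urotensin II, diluted to 5× final concentration in binding buffer, started binding. Plates were sealed with TopSeal-A and incubated 1 hour at room temperature in the dark. Wells were counted for 30 seconds each on a TopCount after a 60-second delay, and percentage inhibition was calculated.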

T4 sequence (P32245 whole entry): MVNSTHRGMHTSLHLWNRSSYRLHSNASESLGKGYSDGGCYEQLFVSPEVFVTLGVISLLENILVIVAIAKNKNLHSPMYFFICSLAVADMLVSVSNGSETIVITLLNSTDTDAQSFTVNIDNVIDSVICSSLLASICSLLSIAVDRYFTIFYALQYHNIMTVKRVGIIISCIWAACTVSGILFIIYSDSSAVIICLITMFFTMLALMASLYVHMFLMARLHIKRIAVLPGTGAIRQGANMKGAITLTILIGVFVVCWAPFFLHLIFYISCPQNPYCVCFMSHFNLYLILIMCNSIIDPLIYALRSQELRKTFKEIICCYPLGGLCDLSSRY
T6 sequence (Q99705 whole entry): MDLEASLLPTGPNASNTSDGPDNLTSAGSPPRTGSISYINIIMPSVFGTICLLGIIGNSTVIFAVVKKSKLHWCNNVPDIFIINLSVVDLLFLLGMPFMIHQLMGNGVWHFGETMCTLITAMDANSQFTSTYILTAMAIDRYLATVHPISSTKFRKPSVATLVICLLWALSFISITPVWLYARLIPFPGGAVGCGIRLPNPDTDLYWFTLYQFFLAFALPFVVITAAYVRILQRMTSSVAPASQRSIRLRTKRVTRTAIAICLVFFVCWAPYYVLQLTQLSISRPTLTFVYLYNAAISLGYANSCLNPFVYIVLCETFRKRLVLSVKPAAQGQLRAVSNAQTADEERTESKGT
T7 sequence (P35372 whole entry): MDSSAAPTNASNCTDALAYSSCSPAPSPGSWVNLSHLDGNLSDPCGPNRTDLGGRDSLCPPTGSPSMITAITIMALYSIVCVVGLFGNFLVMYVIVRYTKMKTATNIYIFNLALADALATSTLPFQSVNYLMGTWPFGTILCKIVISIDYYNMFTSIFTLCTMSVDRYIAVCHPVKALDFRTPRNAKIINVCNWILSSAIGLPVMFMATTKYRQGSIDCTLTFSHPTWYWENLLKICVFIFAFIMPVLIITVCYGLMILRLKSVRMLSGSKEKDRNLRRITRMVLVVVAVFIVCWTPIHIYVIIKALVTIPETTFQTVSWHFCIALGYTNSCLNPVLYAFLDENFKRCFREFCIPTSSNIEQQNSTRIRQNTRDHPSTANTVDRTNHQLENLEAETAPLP
T2 sequence (P41145 whole entry): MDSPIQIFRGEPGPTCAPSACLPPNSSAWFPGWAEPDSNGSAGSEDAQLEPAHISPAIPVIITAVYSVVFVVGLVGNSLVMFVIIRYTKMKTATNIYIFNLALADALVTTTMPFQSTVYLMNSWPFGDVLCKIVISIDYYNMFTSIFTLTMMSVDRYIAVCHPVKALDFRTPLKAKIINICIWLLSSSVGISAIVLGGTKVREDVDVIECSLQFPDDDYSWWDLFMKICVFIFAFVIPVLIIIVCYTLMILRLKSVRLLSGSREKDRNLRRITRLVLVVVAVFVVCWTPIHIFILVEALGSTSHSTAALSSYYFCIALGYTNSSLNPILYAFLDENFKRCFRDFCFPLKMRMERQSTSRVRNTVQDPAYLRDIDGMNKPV
T1 sequence (P41143 whole entry): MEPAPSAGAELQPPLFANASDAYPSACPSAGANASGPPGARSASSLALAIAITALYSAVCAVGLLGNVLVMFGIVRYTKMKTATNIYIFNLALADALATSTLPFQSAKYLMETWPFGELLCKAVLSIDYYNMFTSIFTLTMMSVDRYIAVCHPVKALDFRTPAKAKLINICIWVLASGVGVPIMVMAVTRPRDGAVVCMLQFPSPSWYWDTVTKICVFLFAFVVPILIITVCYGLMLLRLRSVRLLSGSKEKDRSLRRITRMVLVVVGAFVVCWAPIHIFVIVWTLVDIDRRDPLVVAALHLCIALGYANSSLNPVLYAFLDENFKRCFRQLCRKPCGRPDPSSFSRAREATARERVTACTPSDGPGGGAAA
T10 sequence (P41146 whole entry): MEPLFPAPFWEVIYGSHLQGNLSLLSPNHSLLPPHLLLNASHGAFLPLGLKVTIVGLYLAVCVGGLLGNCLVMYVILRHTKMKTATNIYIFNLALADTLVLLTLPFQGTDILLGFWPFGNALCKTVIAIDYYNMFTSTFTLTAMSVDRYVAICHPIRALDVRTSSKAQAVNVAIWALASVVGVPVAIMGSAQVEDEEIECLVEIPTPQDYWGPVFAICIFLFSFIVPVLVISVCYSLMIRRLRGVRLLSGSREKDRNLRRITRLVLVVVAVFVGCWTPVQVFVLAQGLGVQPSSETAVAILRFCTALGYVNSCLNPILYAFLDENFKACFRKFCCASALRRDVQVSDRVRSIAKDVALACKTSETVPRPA
T3 sequence (P41968 whole entry): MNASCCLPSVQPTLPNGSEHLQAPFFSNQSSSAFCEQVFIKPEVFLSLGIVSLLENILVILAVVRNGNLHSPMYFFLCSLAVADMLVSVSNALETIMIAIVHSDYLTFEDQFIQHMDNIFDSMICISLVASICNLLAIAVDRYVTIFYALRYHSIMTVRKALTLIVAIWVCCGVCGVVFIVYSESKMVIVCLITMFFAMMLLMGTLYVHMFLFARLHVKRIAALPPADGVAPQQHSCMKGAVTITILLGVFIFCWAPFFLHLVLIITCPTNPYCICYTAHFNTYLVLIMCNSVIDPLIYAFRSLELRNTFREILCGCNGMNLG
T5 sequence (P33032 whole entry): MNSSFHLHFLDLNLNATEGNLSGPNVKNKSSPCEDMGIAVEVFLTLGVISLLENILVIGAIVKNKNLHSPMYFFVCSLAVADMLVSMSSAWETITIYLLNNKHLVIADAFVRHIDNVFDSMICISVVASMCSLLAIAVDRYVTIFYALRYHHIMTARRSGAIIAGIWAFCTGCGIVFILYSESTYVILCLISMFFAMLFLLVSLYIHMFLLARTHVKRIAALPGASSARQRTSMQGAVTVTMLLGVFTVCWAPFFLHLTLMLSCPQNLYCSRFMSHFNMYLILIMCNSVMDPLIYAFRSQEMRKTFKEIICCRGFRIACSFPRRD
T8 sequence (P25103 whole entry): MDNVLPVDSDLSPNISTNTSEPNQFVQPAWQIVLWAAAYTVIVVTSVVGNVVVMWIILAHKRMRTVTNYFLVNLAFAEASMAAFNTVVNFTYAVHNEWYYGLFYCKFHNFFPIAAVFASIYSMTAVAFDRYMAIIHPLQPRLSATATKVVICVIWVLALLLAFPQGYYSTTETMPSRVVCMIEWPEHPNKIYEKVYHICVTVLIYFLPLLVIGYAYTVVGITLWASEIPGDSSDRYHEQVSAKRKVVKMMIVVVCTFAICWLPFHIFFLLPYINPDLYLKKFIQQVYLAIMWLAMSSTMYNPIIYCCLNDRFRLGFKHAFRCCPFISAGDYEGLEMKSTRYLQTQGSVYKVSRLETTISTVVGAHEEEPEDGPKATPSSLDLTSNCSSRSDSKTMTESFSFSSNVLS

COCC1OC(OCc2ccc(Cl)cc2)C(NC(=O)CCN)C(OCc2ccc(Cl)cc2)C1O (stereo not shown) [compound 201]
A1: inhibition of radioligand binding ([1]; [3H]-Bremazocine, FlashPlate): − (“−” indicates less than 50% inhibition at 10 μM) | A2: inhibition of radioligand binding ([2]; [3H]-Diprenorphine, filtration): − (“−” indicates less than 50% inhibition at 10 μM) | A3: inhibition of radioligand binding ([3]; [125I]-NDP-αMSH, FlashPlate): − (“−” indicates less than 50% inhibition at 10 μM) | A4: inhibition of radioligand binding ([4]; [125I]-NDP-αMSH, FlashPlate): − (“−” indicates less than 50% inhibition at 10 μM) | A5: inhibition of radioligand binding ([5]; [125I]-NDP-αMSH, FlashPlate): + (“+” indicates greater than 50% inhibition at 10 μM) | A6: inhibition of radioligand binding ([6]; [125I]-S36057, FlashPlate): − (“−” indicates less than 50% inhibition at 10 μM) | A7: inhibition of radioligand binding ([7]; [3H]-Naloxone, FlashPlate): − (“−” indicates less than 50% inhibition at 10 μM) | A8: inhibition of radioligand binding ([8]; [125I]-Substance P, filtration): + (“+” indicates greater than 50% inhibition at 10 μM) | A9: inhibition of radioligand binding ([9]; [125I]-PYY, FlashPlate): − (“−” indicates less than 50% inhibition at 10 μM) | A10: inhibition of radioligand binding ([10]; [125I]-Nociceptin, FlashPlate): − (“−” indicates less than 50% inhibition at 10 μM) | A11: inhibition of radioligand binding ([11]; [125I]-Urotensin II, FlashPlate): − (“−” indicates less than 50% inhibition at 10 μM)

CSC1OC(COCc2cccc(N)c2)C(O)C(OCc2ccccc2)C1NC(=O)Cc1ccccc1 (stereo not shown) [compound 325]
A1: inhibition of radioligand binding, human δ-opioid (DOP) ([1]; [3H]-Bremazocine): − (“−” indicates less than 50% inhibition at 10 μM) | A2: inhibition of radioligand binding, human κ-opioid (KOP) ([2]; [3H]-Diprenorphine): − (“−” indicates less than 50% inhibition at 10 μM) | A3: inhibition of radioligand binding, human melanocortin (MC3) ([3]; [125I]-NDP-αMSH): − (“−” indicates less than 50% inhibition at 10 μM) | A4: inhibition of radioligand binding, human melanocortin (MC4) ([4]; [125I]-NDP-αMSH): − (“−” indicates less than 50% inhibition at 10 μM) | A5: inhibition of radioligand binding, human melanocortin (MC5) ([5]; [125I]-NDP-αMSH, 10 µM): + (“+” indicates greater than 50% inhibition at 10 μM) | A6: inhibition of radioligand binding, human melanin-concentrating hormone (MCH1) ([6]; [125I]-S36057): − (“−” indicates less than 50% inhibition at 10 μM) | A7: inhibition of radioligand binding, human μ-opioid (MOP) ([7]; [3H]-Naloxone): − (“−” indicates less than 50% inhibition at 10 μM) | A8: inhibition of radioligand binding, human neurokinin (NK1) ([8]; [125I]-Substance P): + (“+” indicates greater than 50% inhibition at 10 μM) | A9: inhibition of radioligand binding, human neuropeptide Y (NPY-Y1) ([9]; [125I]-PYY): − (“−” indicates less than 50% inhibition at 10 μM) | A10: inhibition of radioligand binding, human opioid (ORL1) ([10]; [125I]-Nociceptin): − (“−” indicates less than 50% inhibition at 10 μM) | A11: inhibition of radioligand binding, mouse urotensin (mUR2) ([11]; [125I]-Urotensin II): − (“−” indicates less than 50% inhibition at 10 μM)

COC[C@H]1OC(OCc2ccc(Cl)cc2)[C@H](NC(=O)CCCNC(=N)N)[C@@H](OCc2ccc3ccccc3c2)[C@@H]1O (stereo partly shown) [compound 33]
A1 radioligand binding inhibition ([1]; human δ-opioid (DOP) membranes): − (“−” indicates less than 50% inhibition at 10 μM) | A2 radioligand binding inhibition ([2]; human κ-opioid (KOP) membranes): − (“−” indicates less than 50% inhibition at 10 μM) | A3 radioligand binding inhibition ([3]; human melanocortin MC3 membranes): − (“−” indicates less than 50% inhibition at 10 μM) | A4 radioligand binding inhibition ([4]; human melanocortin MC4 membranes): − (“−” indicates less than 50% inhibition at 10 μM) | A5 radioligand binding inhibition ([5]; human melanocortin MC5 membranes): − (“−” indicates less than 50% inhibition at 10 μM) | A6 radioligand binding inhibition ([6]; human MCH1 membranes): + (“+” indicates greater than 50% inhibition at 10 μM) | A7 radioligand binding inhibition ([7]; human μ-opioid (MOP) membranes): − (“−” indicates less than 50% inhibition at 10 μM) | A8 radioligand binding inhibition ([8]; human neurokinin NK1 membranes): + (“+” indicates greater than 50% inhibition at 10 μM) | A9 radioligand binding inhibition ([9]; human NPY-Y1 membranes): − (“−” indicates less than 50% inhibition at 10 μM) | A10 radioligand binding inhibition ([10]; human ORL1 membranes): − (“−” indicates less than 50% inhibition at 10 μM) | A11 radioligand binding inhibition ([11]; mouse urotensin mUR2 membranes): − (“−” indicates less than 50% inhibition at 10 μM)

CO[C@H]1[C@H](O)[C@@H](COCc2cccc(O)c2)OC(OCc2ccc(-c3ccccc3)cc2)[C@@H]1NC(=O)CCCN (stereo partly shown) [compound 148]
A1 radioligand binding, percentage inhibition ([1]; [3H]-Bremazocine): − (“−” indicates less than 50% inhibition at 10 μM) | A2 radioligand binding, percentage inhibition ([2]; [3H]-Diprenorphine): − (“−” indicates less than 50% inhibition at 10 μM) | A3 radioligand binding, percentage inhibition ([3]; [125I]-NDP-αMSH): − (“−” indicates less than 50% inhibition at 10 μM) | A4 radioligand binding, percentage inhibition ([4]; [125I]-NDP-αMSH): − (“−” indicates less than 50% inhibition at 10 μM) | A5 radioligand binding, percentage inhibition ([5]; [125I]-NDP-αMSH): − (“−” indicates less than 50% inhibition at 10 μM) | A6 radioligand binding, percentage inhibition ([6]; [125I]-S36057): − (“−” indicates less than 50% inhibition at 10 μM) | A7 radioligand binding, percentage inhibition ([7]; [3H]-Naloxone): − (“−” indicates less than 50% inhibition at 10 μM) | A8 radioligand binding, percentage inhibition ([8]; [125I]-Substance P): + (“+” indicates greater than 50% inhibition at 10 μM) | A9 radioligand binding, percentage inhibition ([9]; [125I]-PYY): − (“−” indicates less than 50% inhibition at 10 μM) | A10 radioligand binding, percentage inhibition ([10]; [125I]-Nociceptin): − (“−” indicates less than 50% inhibition at 10 μM) | A11 radioligand binding, percentage inhibition ([11]; [125I]-Urotensin II): − (“−” indicates less than 50% inhibition at 10 μM)

CO[C@H]1[C@H](O)[C@@H](COCc2cccc(O)c2)OC(OCCc2ccccc2)[C@@H]1NC(=O)CNC(=N)N (stereo partly shown) [compound 158]
A1 radioligand binding, percentage inhibition ([1]; [3H]-Bremazocine): − (“−” indicates less than 50% inhibition at 10 μM) | A2 radioligand binding, percentage inhibition ([2]; [3H]-Diprenorphine): − (“−” indicates less than 50% inhibition at 10 μM) | A3 radioligand binding, percentage inhibition ([3]; [125I]-NDP-αMSH): − (“−” indicates less than 50% inhibition at 10 μM) | A4 radioligand binding, percentage inhibition ([4]; [125I]-NDP-αMSH): − (“−” indicates less than 50% inhibition at 10 μM) | A5 radioligand binding, percentage inhibition ([5]; [125I]-NDP-αMSH): − (“−” indicates less than 50% inhibition at 10 μM) | A6 radioligand binding, percentage inhibition ([6]; [125I]-S36057): − (“−” indicates less than 50% inhibition at 10 μM) | A7 radioligand binding, percentage inhibition ([7]; [3H]-Naloxone): − (“−” indicates less than 50% inhibition at 10 μM) | A8 radioligand binding, percentage inhibition ([8]; [125I]-Substance P): + (“+” indicates greater than 50% inhibition at 10 μM) | A9 radioligand binding, percentage inhibition ([9]; [125I]-PYY): − (“−” indicates less than 50% inhibition at 10 μM) | A10 radioligand binding, percentage inhibition ([10]; [125I]-Nociceptin): − (“−” indicates less than 50% inhibition at 10 μM) | A11 radioligand binding, percentage inhibition ([11]; [125I]-Urotensin II): − (“−” indicates less than 50% inhibition at 10 μM)
